Data on eight compounds can be found in patent publication US12428391B2, “Dimethylsulfoximine derivative” (CISEN PHARMACEUTICAL CO., LTD, priority 2020, dated 2025).

The target in one series is T1, NLRP3 (Homo sapiens, UniProt Q96P20).
T1 construct: endogenous in cells
The experiment in a line: IC50 experiment for the detection of NLRP3 antagonist using THP-1 cells (IL-1β secretion, PMA/LPS/ATP). In kind it is cell-based. From the text: The chemical names and structural formulas of the compounds of the present disclosure for experimental use are shown in the preparation embodiments for each compound. • 1. Experimental principle: In this experiment, the human monocytic cell line THP1 was used to study the inhibitory activity (IC50) of NLRP3 antagonists on the secretion of IL-1β. The monocytic cell line THP1 was differentiated into mature macrophages using PMA (phorbol 12-myristate 13-acetate), and then the cells were stimulated using LPS (lipopolysaccharide), an agonist of Toll-like receptor TLR4, to activate the transcriptional activity of inflammasome NLRP3 and the expression of IL-1β precursor pro-IL-1β. At this time, the NLRP3 antagonist was added, and then ATP was added to further mature and activate NLRP3, and activate downstream caspase-1. Pro-IL-1β could be enzyme-cleaved by the activated caspase-1 to mature IL-1β that could be secreted.

The nature of series [1]: Pharmacokinetic evaluation of compounds in mice. In kind it is in vivo. The conditions noted are these: C57BL/6J mice. The procedure:
Experimental Objective: To Test the Pharmacokinetics of Compounds in Mice
Experimental Materials: C57BL/6J Mice (Male, 6-8 Weeks Old)
Experimental operation: The clear solution obtained after the test compound was dissolved was administered to […] C57BL/6J mice (overnight fasting, 6-8 weeks old) via tail intravenous injection and intragastric administration (vehicle: 10% DMSO/10% solutol/80% water). After administration of test compound or control compound, blood was collected from the mandibular vein and centrifuged to obtain plasma at 0.0833, 0.25, 0.5, 1, 2, 4, 8 and 24 h for the intravenous injection group (IV) and at 0.25, 0.5, 1, 2, 4, 6, 8 and 24 h for the intragastric administration group (PO). The plasma concentration was determined by LC-MS/MS, and relevant pharmacokinetic parameters were calculated by the non-compartmental model linear logarithmic trapezoidal method using pharmacokinetic software WinNonlin™ Version 6.3. Meaning of each parameter: T1/2: half-life; Cmax: peak concentration; AUC0-inf: area under the plasma concentration-time curve from time 0 extrapolated to infinite time; F: bioavailability, Vd: apparent volume of distribution, Cl: clearance rate, Tmax: time to peak.

The subject of series [2] is MSU-induced Air Pouch acute gout model. In words: MSU-induced Air Pouch acute gout model, IL-6 and IL-1β in APLV. In kind it is in vivo, C57BL/6 mice. The conditions noted are these: for level of IL-1β in APLV after treatment / level of IL-6 in APLV after treatment: MCC950 50 mg/kg po, 7a 50, 15, 5 mg/kg po, dexamethasone 10 mg/kg ip, MSU 3 mg. The procedure:
Experimental Embodiment 3: Evaluation of the Therapeutic Effect of the Compound on the MSU-Induced Air Pouch Acute Gout Model in C57BL/6 Mice
Air Pouch of mouse is a cystic space similar to the human synovial membrane, and the injection of monosodium urate crystals (MSU) into the air pouch will cause an acute inflammatory response similar to human gout. The inflammatory cytokines IL-6 and IL-1β in the Air Pouch Lavage Fluid flushing fluid (APLV) were analyzed, and MCC950 was used as a control compound, and the efficacy of the compound of the present disclosure on the MSU-induced air pouch gout model in male C57BL/6 mice was tested.
On the seventh day, the drug was administered first, and the MSU crystal solution was injected into the air pouch after 1 hour, and the Air Pouch Lavage Fluid (APLV) was collected after 7 hours and analyzed.
1 g of uric acid was dissolved in 0.2 L of boiling water containing 6 mL of 1 N sodium hydroxide; after the pH was adjusted to 7.4, the solution was gradually cooled at room temperature and then left overnight at 4° C. MSU crystals were recovered by centrifugation and evaporated to dryness, dispensed into individual vials (3 mg), and sterilized by autoclaving.
Healthy C57BL/6 mice were numbered and grouped in the experiment, and 5 mL of sterile air was subcutaneously injected into the back of the mice on the same day of grouping (Day 1) and on the fourth day (Day 4) to generate an air pouch. On the seventh day (Day 7), each group of mice was given vehicle or test sample, and after 1 hour the suspension of MSU crystals (saline, 3 mg/mL) was injected into the air pouch. Air Pouch Lavage Fluid (APLV) would be collected after 6 hours, and ELISA kits would be used to test the levels of IL-6 and IL-1β in APLV. Results were expressed as average value±SEM. Statistical analysis was performed by a method of analysis of variance (ANOVA), followed by Dunnett test, and differences were considered significant when p<0.05.

For series [3], the system named is cryopyrin-associated auto-inflammatory syndrome (cAPS) model. The conditions noted are these: mice; cited from earlier work.
The subject of another series is type II diabete model. The conditions noted are these: mice; cited from earlier work.
The target of the next series is NLRP3 inflammasome (Homo sapiens, UniProt Q96P20). The conditions noted are these: cited from earlier work.
Series [4] deals with experimental autoimmune encephalomyelitis (EAE). The conditions noted are these: mice; cited from earlier work.
Where [5] appears, read: at the dose of 15 mg/kg and 50 mg/kg po.

T1 sequence (Q96P20 whole entry): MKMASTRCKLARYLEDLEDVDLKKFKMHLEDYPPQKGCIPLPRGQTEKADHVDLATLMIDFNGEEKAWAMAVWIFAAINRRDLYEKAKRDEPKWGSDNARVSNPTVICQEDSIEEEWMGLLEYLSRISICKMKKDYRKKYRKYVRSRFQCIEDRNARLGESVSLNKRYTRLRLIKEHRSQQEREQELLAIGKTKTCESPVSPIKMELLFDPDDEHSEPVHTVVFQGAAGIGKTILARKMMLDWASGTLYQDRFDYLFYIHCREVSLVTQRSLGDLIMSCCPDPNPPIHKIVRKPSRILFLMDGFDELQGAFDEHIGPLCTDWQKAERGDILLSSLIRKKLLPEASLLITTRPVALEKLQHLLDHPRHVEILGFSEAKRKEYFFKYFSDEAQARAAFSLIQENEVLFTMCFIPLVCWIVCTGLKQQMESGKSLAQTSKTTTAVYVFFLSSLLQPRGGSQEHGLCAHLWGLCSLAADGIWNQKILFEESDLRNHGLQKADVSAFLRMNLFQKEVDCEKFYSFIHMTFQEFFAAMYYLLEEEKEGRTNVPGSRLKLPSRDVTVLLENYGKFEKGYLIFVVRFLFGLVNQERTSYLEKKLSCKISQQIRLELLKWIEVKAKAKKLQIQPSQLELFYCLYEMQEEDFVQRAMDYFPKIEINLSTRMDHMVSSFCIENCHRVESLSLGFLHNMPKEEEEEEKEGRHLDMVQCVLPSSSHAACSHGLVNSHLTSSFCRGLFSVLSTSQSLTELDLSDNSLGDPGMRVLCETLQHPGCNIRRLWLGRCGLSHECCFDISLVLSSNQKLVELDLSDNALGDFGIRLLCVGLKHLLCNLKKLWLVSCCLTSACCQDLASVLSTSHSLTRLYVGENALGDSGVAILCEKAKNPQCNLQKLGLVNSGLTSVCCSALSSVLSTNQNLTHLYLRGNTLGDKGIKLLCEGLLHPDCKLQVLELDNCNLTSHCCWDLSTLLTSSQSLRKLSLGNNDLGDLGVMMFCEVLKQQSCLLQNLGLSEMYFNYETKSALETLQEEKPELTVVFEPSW
NLRP3 inflammasome, sequence (Q96P20 whole entry): as above

For the compound `CS(C)(=O)=Nc1ccc(S(=N)(=O)NC(=O)Nc2c3c(cc4c2CCC4)CCC3)s1` (single isomer, unassigned) [Compound 4a], on NLRP3, the IC50 – broadly, the concentration at which inhibition is half-maximal – was found to be 33.9 nM.
Compound `COc1cc(-c2ccc3c(c2NC(=O)NS(=N)(=O)c2ccc(N=S(C)(C)=O)s2)CCC3)ccn1` (single isomer, unassigned) [Compound 5a] yielded an IC50 against NLRP3 of 7.4 nM.
`CS(C)(=O)=Nc1cnc(S(=N)(=O)NC(=O)Nc2c3c(cc4c2CCC4)CCC3)s1` (single isomer, unassigned) [Compound 7a] had a F in series [1] (PO 20 mg/kg vs IV 3 mg/kg) of 67.6%. Besides, in series [1] (mouse, plasma, IV 3 mg/kg), the AUC(0-inf) – broadly, total exposure, with the tail of the curve extrapolated – came to 65.7 µM·h; the Vd (as a rule, the apparent volume that relates the amount in the body to the concentration in plasma or blood) was found to be 0.25 L/kg; the clearance – broadly, the rate of elimination divided by the concentration – stood at 1.68 mL/min/kg; the half-life – broadly, how long it takes for the measured level to halve – was 2.1 h. Besides, in series [1] (mouse, plasma, PO 20 mg/kg), the AUC(0-inf) was determined as 296 µM·h; the Cmax (as a rule, the peak of the concentration-time curve) is 102 µM; the Tmax (usually the time at which the peak concentration occurs) turned out to be 0.5 h. At NLRP3, this compound yielded an IC50 of 9.8 nM. For the same compound, in series [2], the “level of IL-1β in APLV after treatment” value is reported as “decreased rapidly” and the “level of IL-6 in APLV after treatment” value was “decreased rapidly”. Also, in series [2] (at high, medium and low doses (50, 15, 5 mg/kg po)), the “reducing IL-6 in APLV compared with dexamethasone (10 mg/kg dose)” value is “better than dexamethasone”. Also, in series [2] (setting [5]), the “reducing IL-1β in APLV compared with MCC950 (50 mg/kg dose)” value is recorded as “significantly better than that of MCC950”, the “reducing IL-1β in APLV compared with dexamethasone (10 mg/kg)” value is on record as “reaching the same effect as dexamethasone” and the “reducing IL-6 in APLV compared with MCC950 (50 mg/kg dose)” value is listed as “better than MCC950”. Moreover, in series [2] (po, MSU-induced air pouch), the “effect on reducing IL-1β in APLV” value was “significant effect”.
As for `O=C(O)c1ccc(/C=C2\SC(=O)N(Cc3cccc(C(F)(F)F)c3)C2=O)cc1` [CY-09], the “therapeutic effect on cAPS model” value in series [3] was “significant therapeutic effects”. The “therapeutic effect on type II diabete model” value in the series with type II diabete model is listed as “significant therapeutic effects”. For the same compound, the “assembly and activation of NLRP3 inflammasome” value on NLRP3 inflammasome is “specifically blocks”.
On NLRP3, `COc1cc(-c2cccc(C(C)C)c2NC(=O)NS(=O)(=O)c2ccc(N=S(C)(C)=O)s2)ccn1` [Compound 2] came in with an IC50 of 40 nM.
As for `COc1cc(-c2ccc3c(c2NC(=O)NS(=O)(=O)c2ccc(N=S(C)(C)=O)s2)CCC3)ccn1` [Compound 3], the IC50 at NLRP3 was 10 nM.
As to `CS(C)(=O)=Nc1ccc(S(=N)(=O)NC(=O)Nc2c(-c3ccnc(C#N)c3)ccc3c2CCC3)s1` (stereo not drawn) [Compound 8], the IC50 at NLRP3 amounted to 27.8 nM.
For the compound `CC(C)(O)c1coc(S(=O)(=O)NC(=O)Nc2c3c(cc4c2CCC4)CCC3)c1` [MCC950, reference compound], in series [4], the “severity of experimental autoimmune encephalomyelitis (EAE)” value is “reduce the severity”. Besides, in series [2], the “level of IL-1β in APLV after treatment” value is given as “decreased rapidly” and the “level of IL-6 in APLV after treatment” value is listed as “decreased rapidly”.
